Experiments:
Assay type in all cases: physicochemical
[1] = Physical stability at room temperature under different relative humidity (RH); conditions: for Physical stability, Observation: 20-25° C., 300 mg in uncapped scintillation vial
Protocol: The physical stability of the amorphous 3-(palmitoyl amido)-2-hydroxy-1-(dimethoxytriphenylmethyl hydroxy)-propane lithium salts were tested at room temperature under different relative humidity (RH). 300 mg of amorphous 3-(palmitoyl amido)-2-hydroxy-1-(dimethoxytriphenylmethyl hydroxy)-propane lithium salt was placed in uncapped scintillation vials at 11% RH, 33% RH and 75% RH for days. (Table 1)

[2] = Physical form at room temperature (isolation and storage)
[3] = Solubility in organic solvents; conditions: most organic solvents, at or below ambient temperature

CCCCCCCCCCCCCCCC(=O)NCC(COC(c1ccccc1)(c1ccc(OC)cc1)c1ccc(OC)cc1)OC(=O)CCC(=O)[O-].[Li+] (stereo not drawn) [succinylated 3-(palmitoyl amido)-2-hydroxy-1-(dimethoxytriphenylmethyl hydroxy)-propane lithium salt]
Physical stability, Observation ([1]; 11% RH, examined by gently shaking once every day): Remains free-flowing solids up to 14 days* | Physical stability, Observation ([1]; 33% RH, examined by gently shaking once every day): Remains free-flowing solids up to 14 days* | Physical stability, Observation ([1]; 75% RH): Turns to sticky after 30 min | Physical stability ([1]; room temperature, up to 33% relative humidity): remained solid for an extended period of time | Physical form [2]: stable solids | Solubility in organic solvents [3]: highly soluble

— patent US11530179B2, “Amorphous solid succinylated 3-(fatty acid amido)-2-hydroxy-1 -(protected hydroxy)-propane salts and methods of making the same” (Geron Corporation, priority 2019, dated 2022)
